{"source": "patent US11345712B2", "about": "“Protein-targeting compounds and pharmaceutical compositions thereof, and their therapeutic applications” (BioTheryX, Inc., priority 2019, dated 2022)"}
{"system": "MOLM-13 cells", "test": "MOLM-13 cell viability assay (CellTiter-Glo)", "type": "cell-based", "details": "Homo sapiens, MOLM-13, 72 h, 3 days, concentration of 1 μM, read-out: Antiproliferative Activity (inhibition, MOLM-13 cell viability)", "outline": "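MOLM-13 AML cells in RPMI 1640 with 10% FBS, seeded at 2,500 cells/well and exposed to compound or DMSO for 3 days at 37° C, 5% CO2. Viability read as CellTiter-Glo luminescence after 10 min shaking.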", "units": {"cytotoxicity at 1 µM": "%"}}
{"smiles": "Cc1ccc(NC(=O)NCc2cc3c(s2)C(=O)N(C2CCC(=O)NC2=O)C3)cc1N1CCCC1", "note": "(stereo not drawn) [II-98, 1-((5-(2,6-dioxopiperidin-3-yl)-6-oxo-5,6-dihydro-4H-thieno[2,3-c]pyrrol-2-yl)methyl)-3-(4-methyl-3-(pyrrolidin-1-yl)phenyl)urea]", "cytotoxicity at 1 µM": "> 80"}
{"smiles": "O=C1CCC(N2Cc3cc(CNC(=O)Nc4cccc(N5CCCC5)c4)sc3C2=O)C(=O)N1", "note": "(stereo not drawn) [II-99, 1-((5-(2,6-dioxopiperidin-3-yl)-6-oxo-5,6-dihydro-4H-thieno[2,3-c]pyrrol-2-yl)methyl)-3-(3-(pyrrolidin-1-yl)phenyl)urea]", "cytotoxicity at 1 µM": "> 80"}
{"smiles": "CCN(C)c1cc(NC(=O)NCc2cc3c(s2)C(=O)N(C2CCC(=O)NC2=O)C3)ccc1C", "note": "(stereo not drawn) [II-100, 1-((5-(2,6-dioxopiperidin-3-yl)-6-oxo-5,6-dihydro-4H-thieno[2,3-c]pyrrol-2-yl)methyl)-3-(3-(ethyl(methyl)amino)-4-methylphenyl)urea]", "cytotoxicity at 1 µM": "> 80"}
{"smiles": "Cc1ccc(CCC(C)(C)C(=O)NCc2scc3c2CN([C@H]2CCC(=O)NC2=O)C3=O)cc1Cl", "note": "[II-104, (S)-4-(3-chloro-4-methylphenyl)-N-((5-(2,6-dioxopiperidin-3-yl)-4-oxo-5,6-dihydro-4H-thieno[3,4-c]pyrrol-1-yl)methyl)-2,2-dimethylbutanamide]", "cytotoxicity at 1 µM": "< 25"}
{"smiles": "Cc1ccc(NC(=O)NCc2cc3c(s2)C(=O)N(C2CCC(=O)N(COP(=O)(OC(C)(C)C)OC(C)(C)C)C2=O)C3)cc1N(C)C", "note": "(stereo not drawn) [II-105, di-tert-butyl ((3-(2-((3-(3-(dimethylamino)-4-methylphenyl)ureido)-methyl)-6-oxo-4,6-dihydro-5H-thieno[2,3-c]pyrrol-5-yl)-2,6-dioxopiperidin-1-yl)methyl) phosphate]", "cytotoxicity at 1 µM": "< 25"}
{"smiles": "CC(C)c1ccc(C(C(=O)NCc2scc3c2CN(C2CCC(=O)NC2=O)C3=O)C(C)C)cc1", "note": "(stereo not drawn) [II-106, N-((5-(2,6-dioxopiperidin-3-yl)-4-oxo-5,6-dihydro-4H-thieno[3,4-c]pyrrol-1-yl)methyl)-2-(4-isopropylphenyl)-3-methylbutanamide]", "cytotoxicity at 1 µM": "< 25"}
{"smiles": "CN(C)C(C(=O)NCc1scc2c1CN(C1CCC(=O)NC1=O)C2=O)c1ccccc1F", "note": "(stereo not drawn) [II-108, 2-(dimethylamino)-N-((5-(2,6-dioxopiperidin-3-yl)-4-oxo-5,6-dihydro-4H-thieno[3,4-c]pyrrol-1-yl)methyl)-2-(2-fluorophenyl)acetamide]", "cytotoxicity at 1 µM": "< 25"}
{"smiles": "CCCOc1ccc(C(N)C(=O)NCc2scc3c2CN(C2CCC(=O)NC2=O)C3=O)cc1", "note": "(stereo not drawn) [II-112, 2-amino-N-((5-(2,6-dioxopiperidin-3-yl)-4-oxo-5,6-dihydro-4H-thieno[3,4-c]pyrrol-1-yl)methyl)-2-(4-propoxyphenyl)acetamide]", "cytotoxicity at 1 µM": "< 25"}
{"smiles": "NC(C(=O)NCc1scc2c1CN(C1CCC(=O)NC1=O)C2=O)c1ccc(O)cc1", "note": "(stereo not drawn) [II-113, 2-amino-N-((5-(2,6-dioxopiperidin-3-yl)-4-oxo-5,6-dihydro-4H-thieno[3,4-c]pyrrol-1-yl)methyl)-2-(4-hydroxyphenyl)acetamide]", "cytotoxicity at 1 µM": "< 25"}
{"smiles": "Cc1ccc(NC(=O)NCc2cc3c(s2)C(=O)N(C2CCC(=O)NC2=O)C3=O)cc1N(C)C", "note": "(stereo not drawn) [II-114, 1-(3-(dimethylamino)-4-methylphenyl)-3-((5-(2,6-dioxopiperidin-3-yl)-4,6-dioxo-5,6-dihydro-4H-thieno[2,3-c]pyrrol-2-yl)methyl)urea]", "cytotoxicity at 1 µM": "25 to 50"}
{"smiles": "Cc1cc(CCCC(=O)NCc2scc3c2CN(C2CCC(=O)NC2=O)C3=O)ccc1N(C)C", "note": "(stereo not drawn) [II-115, 4-(4-(dimethylamino)-3-methylphenyl)-N-((5-(2,6-dioxopiperidin-3-yl)-4-oxo-5,6-dihydro-4H-thieno[3,4-c]pyrrol-1-yl)methyl)butanamide]", "cytotoxicity at 1 µM": "< 25"}
{"smiles": "COc1c(F)cccc1CC(=O)NCc1cc2c(s1)C(=O)N(C1CCC(=O)NC1=O)C2", "note": "(stereo not drawn) [II-116, N-((5-(2,6-dioxopiperidin-3-yl)-6-oxo-5,6-dihydro-4H-thieno[2,3-c]pyrrol-2-yl)methyl)-2-(3-fluoro-2-methoxyphenyl)acetamide]", "cytotoxicity at 1 µM": "< 25"}
{"smiles": "O=C1CCC(N2Cc3c(csc3CNC(=S)Nc3c(Cl)c(Cl)cc(Cl)c3Cl)C2=O)C(=O)N1", "note": "(stereo not drawn) [II-123, 1-((5-(2,6-dioxopiperidin-3-yl)-4-oxo-5,6-dihydro-4H-thieno[3,4-c]pyrrol-1-yl)methyl)-3-(2,3,5,6-tetrachlorophenyl)thiourea]", "cytotoxicity at 1 µM": "< 25"}
{"smiles": "CC(C)(C)c1ccc(S(=O)(=O)NCc2scc3c2CN(C2CCC(=O)NC2=O)C3=O)cc1", "note": "(stereo not drawn) [II-124, 4-(tert-butyl)-N-((5-(2,6-dioxopiperidin-3-yl)-4-oxo-5,6-dihydro-4H-thieno[3,4-c]pyrrol-1-yl)methyl)benzenesulfonamide]", "cytotoxicity at 1 µM": "< 25"}
{"smiles": "CC(C)(C)c1ccc(C2(C(=O)NCc3scc4c3CN(C3CCC(=O)NC3=O)C4=O)CC2)cc1", "note": "(stereo not drawn) [II-127, 1-(4-(tert-butyl)phenyl)-N-((5-(2,6-dioxopiperidin-3-yl)-4-oxo-5,6-dihydro-4H-thieno[3,4-c]pyrrol-1-yl)methyl)cyclopropane-1-carboxamide]", "cytotoxicity at 1 µM": "25 to 50"}
{"smiles": "CC(C)(C)c1ccc(CS(=O)(=O)NCc2scc3c2CN(C2CCC(=O)NC2=O)C3=O)cc1", "note": "(stereo not drawn) [II-128, 1-(4-(tert-butyl)phenyl)-N-((5-(2,6-dioxopiperidin-3-yl)-4-oxo-5,6-dihydro-4H-thieno[3,4-c]pyrrol-1-yl)methyl)methanesulfonamide]", "cytotoxicity at 1 µM": "> 80"}
{"smiles": "CC(C)(C)c1ccc(C(F)(F)C(=O)NCc2scc3c2CN(C2CCC(=O)NC2=O)C3=O)cc1", "note": "(stereo not drawn) [II-129, 2-(4-(tert-butyl)phenyl)-N-((5-(2,6-dioxopiperidin-3-yl)-4-oxo-5,6-dihydro-4H-thieno[3,4-c]pyrrol-1-yl)methyl)-2,2-difluoroacetamide]", "cytotoxicity at 1 µM": "< 25"}
{"smiles": "CC(C)(C)c1ccc(S(=O)(=O)NCCc2scc3c2CN(C2CCC(=O)NC2=O)C3=O)cc1", "note": "(stereo not drawn) [II-131, 4-(tert-butyl)-N-(2-(5-(2,6-dioxopiperidin-3-yl)-4-oxo-5,6-dihydro-4H-thieno[3,4-c]pyrrol-1-yl)ethyl)benzenesulfonamide]", "cytotoxicity at 1 µM": "< 25"}
{"smiles": "CC(C)(C)c1ccc(C(O)C(=O)NCc2scc3c2CN(C2CCC(=O)NC2=O)C3=O)cc1", "note": "(stereo not drawn) [II-132, 2-(4-(tert-butyl)phenyl)-N-((5-(2,6-dioxopiperidin-3-yl)-4-oxo-5,6-dihydro-4H-thieno[3,4-c]pyrrol-1-yl)methyl)-2-hydroxyacetamide]", "cytotoxicity at 1 µM": "25 to 50"}
{"smiles": "CC(C)(C)c1ccc(C(O)(C(=O)NCc2scc3c2CN(C2CCC(=O)NC2=O)C3=O)C(F)(F)F)cc1", "note": "(stereo not drawn) [II-133, 2-(4-(tert-butyl)phenyl)-N-((5-(2,6-dioxopiperidin-3-yl)-4-oxo-5,6-dihydro-4H-thieno[3,4-c]pyrrol-1-yl)methyl)-3,3,3-trifluoro-2-hydroxypropanamide]", "cytotoxicity at 1 µM": "< 25"}
{"smiles": "O=C1CCC(N2Cc3c(csc3CNC(=O)NCCCOc3ccccc3)C2=O)C(=O)N1", "note": "(stereo not drawn) [II-145, 1-((5-(2,6-dioxopiperidin-3-yl)-4-oxo-5,6-dihydro-4H-thieno[3,4-c]pyrrol-1-yl)methyl)-3-(3-phenoxypropyl)urea]", "cytotoxicity at 1 µM": "50 to 80"}
{"smiles": "O=C(CCCc1ccc(N2CCOCC2)cc1)NCc1scc2c1CN(C1CCC(=O)NC1=O)C2=O", "note": "(stereo not drawn) [II-146, N-((5-(2,6-dioxopiperidin-3-yl)-4-oxo-5,6-dihydro-4H-thieno[3,4-c]pyrrol-1-yl)methyl)-4-(4-morpholinophenyl)butanamide]", "cytotoxicity at 1 µM": "< 25"}
{"smiles": "CC(C)(C)c1ccc(C(C(=O)NCc2scc3c2CN(C2CCC(=O)NC2=O)C3=O)C(F)(F)F)cc1", "note": "(stereo not drawn) [II-147, 2-(4-(tert-butyl)phenyl)-N-((5-(2,6-dioxopiperidin-3-yl)-4-oxo-5,6-dihydro-4H-thieno[3,4-c]pyrrol-1-yl)methyl)-3,3,3-trifluoropropanamide]", "cytotoxicity at 1 µM": "< 25"}
{"smiles": "CC(C)(C)c1ccc(NC(=O)NCc2scc3c2CN(C2CCC(=O)NC2=O)C3=O)cc1", "note": "(stereo not drawn) [II-148, 1-(4-(tert-butyl)phenyl)-3-((5-(2,6-dioxopiperidin-3-yl)-4-oxo-5,6-dihydro-4H-thieno[3,4-c]pyrrol-1-yl)methyl)urea]", "cytotoxicity at 1 µM": "> 80"}
{"smiles": "O=C(/C=C/c1ccc(C2(C(F)(F)F)CC2)cc1)NCc1ccc2c(c1)CN(C1CCC(=O)NC1=O)C2=O", "note": "(stereo not drawn) [II-149, (E)-N-((2-(2,6-dioxopiperidin-3-yl)-1-oxoisoindolin-5-yl)methyl)-3-(4-(1-(trifluoromethyl)cyclopropyl)phenyl)acrylamide]", "cytotoxicity at 1 µM": "> 80"}
{"smiles": "O=C1CCC(N2Cc3cc(CNC(=O)C(F)(F)c4ccc(C5(C(F)(F)F)CC5)cc4)ccc3C2=O)C(=O)N1", "note": "(stereo not drawn) [II-164, N-((2-(2,6-dioxopiperidin-3-yl)-1-oxoisoindolin-5-yl)methyl)-2,2-difluoro-2-(4-(1-(trifluoromethyl)cyclopropyl)phenyl)acetamide]", "cytotoxicity at 1 µM": "> 80"}
{"smiles": "O=C1CCC(N2Cc3c(csc3CNC(=O)C(F)(F)c3ccc(C4(C(F)(F)F)CC4)cc3)C2=O)C(=O)N1", "note": "(stereo not drawn) [II-165, N-((5-(2,6-Dioxopiperidin-3-yl)-4-oxo-5,6-dihydro-4H-thieno[3,4-c]pyrrol-1-yl)methyl)-2,2-difluoro-2-(4-(1-(trifluoromethyl)cyclopropyl)phenyl)acetamide]", "cytotoxicity at 1 µM": "< 25"}
